# In PubChem BioAssay AID1419 (Emory University Molecular Libraries Screening Center, 2008):
# Activity calls are given as the source filed them. No rule for the calls is given here.
# Assay: blockers of an Epstein-Barr virus protein-peptide interaction – biochemical, fluorescence polarization, dose response (AID 1419)
# Details: cell-free protein-peptide binding, 2 h; for fold change: measured here: P channel fold over control, at 54 µM
Structure (SMILES),IC50,fold change
Cc1nnc(N2C(=O)C(O)=C(C(=O)c3ccco3)C2c2ccc(C(C)C)cc2)s1 (stereo not given),2.2 µM,3.11
CCN(CC)c1ccc(N=Cc2c(O)n(CCc3ccc(OC)c(OC)c3)c(=O)[nH]c2=O)cc1,> 54 µM (inactive),5.55
Cc1c(C#N)c2ncnc(-c3ccccc3)c2n1-c1ccccc1,> 54 µM (inactive),1.02
CN(C)CCCN1C(=O)c2cccc3c(Br)ccc(c23)C1=O,7.44 µM,3.2
O=C1C2=C(SCCS2)C(=O)N1CCCO,2.57 µM,3.44
Cc1cccc(N2C(=O)NC(=O)/C(=C/c3cc4c(cc3[N+](=O)[O-])OCO4)C2=O)c1,2.62 µM,3.71
Cc1ccccc1N1C(=O)c2cccc3c(N(C)CCO)ccc(c23)C1=O,0.74 µM,14
Cc1cccc(C)c1NC(=O)COC(=O)c1c2c(nc3ccccc13)/C(=C\c1ccc3c(c1)OCO3)CCC2,> 54 µM (inactive),1.32
CC(=O)c1ccc(N2C(=O)C3C(C2=O)C(C(=O)c2ccc(Cl)cc2)N2CCCC32)cc1 (stereo not given),7.19 µM,8.74
CC1=NOC(=O)/C1=C\c1ccc(-c2cc(Cl)ccc2Cl)o1,1.49 µM,4.14
O=c1[nH]c(Nc2ccccc2)cc2ccccc12,2.02 µM,2.34
NC(=S)n1[nH]c(-c2ccc([N+](=O)[O-])cc2)c(N=Nc2cccc(Cl)c2)c1=O,3.74 µM,1.19
O=C(OCCN1C(=O)c2cccc3c(N4CCOCC4)ccc(c23)C1=O)c1cc(Cl)cc(Cl)c1,1.42 µM,49.6
Cc1n[nH]c(C)c1N1C(=O)c2cccc3c(N4CCCCCC4)ccc(c23)C1=O,< 0.42 µM,88.6
Cc1ccc(-c2noc(CCC(=O)N3CCCC3)n2)cc1,> 54 µM (inactive),1.01
Cc1cccc2cc3c(N)c(C(=O)N4CCCc5ccccc54)sc3nc12,9.62 µM,4.66
N#Cc1cc(C(=O)c2ccccc2O)cn(-c2nccs2)c1=O,5.3 µM,14.2
CN(c1ncc(C(F)(F)F)cc1Cl)N1C(=O)c2cccc(N)c2C1=O,3.83 µM,1.88
Nc1ccc2c3c(cccc13)C(=O)N(c1ccccc1)C2=O,< 0.42 µM,200
Nc1ccc2nc3c(=O)[nH]c(=S)[nH]c3nc2c1,< 0.42 µM,86.2

Structure (SMILES),IC50,fold change
COc1ccc2c(c1)c1nc3ccccc3nc1n2Cc1ccc(OC)c(OC)c1,> 54 µM (inactive),2
Cc1nn(-c2ccccc2)c(N2CCCC2)c1/C=C1\N=C(c2ccccc2)OC1=O,25.5 µM,3.5
Cc1ccc(S(=O)(=O)C(C#N)c2nc3ccccc3nc2N2CCCC2)cc1C (stereo not given),> 54 µM (inactive),1.26
C(=N\N1CCOCC1)/c1nc(-c2ccccc2)n2ccccc12,26.6 µM,4.71
COc1ccc(NC(=O)NC(=O)c2cc(OCC(F)(F)F)ccc2OCC(F)(F)F)cc1,> 54 µM (inactive),0.943
Cc1ccc(NC2=Nc3ccccc3N3C2=Nc2c(c(C)nn2-c2ccccc2)C3c2ccc(O)c(O)c2)cc1 (stereo not given),3.36 µM,2.84
COc1ccc(NS(=O)(=O)c2ccc(Cl)s2)cn1,4.58 µM,3.24
COc1cccc(Nc2ncccc2C(=O)NCc2ccccc2)c1,2.59 µM,3.14
Nc1cccc2c1C(=O)N(CC(=O)NC13CC4CC(CC(C4)C1)C3)C2=O,8.06 µM,2.22
CCOC(=O)/C(C#N)=C/c1cc2ccccc2nc1N1CCCCC1,27.1 µM,2.2
Cc1ccc(N2C(=O)C3C(C2=O)C(C(=O)c2ccc(Cl)cc2)N2CCCC32)cc1 (stereo not given),> 54 µM (inactive),2.44
CCC1=NN2C(=N)/C(=C\c3ccc(OCc4cc(=O)n5nc(CC)sc5n4)c(OC)c3)C(=O)N=C2S1,> 54 µM (inactive),1.08
COc1cc(/C=C2\SC(=O)N(Cc3ccc(Cl)cc3)C2=O)cc([N+](=O)[O-])c1O,24.9 µM,1.04
CCOc1ccc2[nH]c(=O)c(CN(CC3COCCO3)C(=O)C3CC3)cc2c1 (stereo not given),> 54 µM (inactive),1.04
CC(C)(C)c1ccc(C(=O)Nc2cccc3c(=O)[nH][nH]c(=O)c23)cc1,5.97 µM,3.72
Cc1cc(C=C2C(=O)c3ccccc3C2=O)c(C)n1-c1ccccc1,5.56 µM,9.41
O=C1C(=Cc2cccn2-c2ccc(O)cc2)C(=O)c2ccccc21,1.94 µM,4.4
CCOc1ccc(-c2c(C#N)c(N)nc3sc(C(=O)c4ccccc4)c(N)c23)cc1,> 54 µM (inactive),4.62
CN1CCN(c2ccc([N+](=O)[O-])c3no[n+]([O-])c23)CC1,1.32 µM,11.6
C=CCn1c(=O)[nH]c2nc3cc(N=CN(C)C)c(C)cc3nc2c1=O,< 0.42 µM,40
